Laboratory results: patent publication US11447449B2, “Inhibitors of indoleamine 2,3-dioxygenase and methods of their use” (BRISTOL-MYERS SQUIBB COMPANY, priority 2018, dated 2022)
In brackets after ≈: the same amount, converted by molar mass. Read-outs that look alike come from different tables or passages of the source.

Assays:
[1] = molecular target: T1, human IDO1 (Homo sapiens, UniProt P14902); assay: Human IDO1/HEK293 cell IDO inhibition assay; type: cell-based; settings: human IDO1/HEK293 cells, 20 hours; read-out: IDO1 HEK Human IC50
T1 construct: expressed in transfected cells
T1 sequence (P14902 whole entry): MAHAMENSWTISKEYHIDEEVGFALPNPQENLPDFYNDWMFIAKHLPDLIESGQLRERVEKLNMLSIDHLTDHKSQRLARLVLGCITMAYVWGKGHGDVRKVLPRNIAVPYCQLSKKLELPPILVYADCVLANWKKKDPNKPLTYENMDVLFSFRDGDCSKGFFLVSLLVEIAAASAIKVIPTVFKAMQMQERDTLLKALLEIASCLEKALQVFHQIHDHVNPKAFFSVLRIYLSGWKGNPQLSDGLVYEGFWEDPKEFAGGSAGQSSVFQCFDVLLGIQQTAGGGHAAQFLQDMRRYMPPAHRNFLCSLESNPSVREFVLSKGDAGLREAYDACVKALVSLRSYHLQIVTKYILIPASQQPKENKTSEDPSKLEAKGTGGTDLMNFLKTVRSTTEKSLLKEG
Procedure: HEK293 cells were transfected with a pCDNA-based mammalian expression vector harboring human IDO1 cDNA (NM 002164.2) by electroporation. They were cultured in medium (DMEM with 10% FBS) containing 1 mg/ml G418 for two weeks. Clones of HEK293 cells that stably expressed human IDO1 protein were selected and expanded for IDO inhibition assay.
The human IDO1/HEK293 cells were seeded at 10,000 cells per 50 μL per well with RPMI/phenol red free media contains 10% FBS in a 384-well black wall clear bottom tissue culture plate (Matrix Technologies LLC) 100 nL of certain concentration of compound was then added to each well using ECHO liquid handling systems. The cells were incubated for 20 hours in 37° C. incubator with 5% CO2.
The compound treatments were stopped by adding trichloroacetic acid (Sigma-Aldrich) to a final concentration at 0.2%. The cell plate was further incubated at 50° C. for 30 minute. The equal volume supernatant (20 μL) and 0.2% (w/v) Ehrlich reagent (4-dimethylaminobenzaldehyde, Sigma-Aldrich) in glacial acetic acid were mixed in a new clear bottom 384-well plate. This plate was then incubated at room temperature for 30 minute. The absorbance at 490 nm was measured on Envision plate reader. […]

[2] = molecular target: T2, indoleamine 2,3-dioxygenase (IDO) (Homo sapiens, UniProt P14902); assay: HeLa cell-based indoleamine 2,3-dioxygenase (IDO) assay, kynurenine production; settings: HeLa cells, IFNγ 25 ng/mL, 48 hour incubation
T2 construct: endogenous in cells; host or cells: HeLa (ATCC CCL-2), stimulated with IFN-gamma at 25 ng/mL
T2 sequence (P14902 whole entry): as above
Procedure: Assessment of inhibitor activity in HeLa cell-based indoleamine 2,3-dioxygenase (IDO) assay:
HeLa (ATCC® CCL-2) cells were obtained from the ATCC® and cultured in Dulbecco's Modified Eagle Medium supplemented with 4.5 g/L glucose, […] (#10-013-CV, Corning), 2 mM L-alanyl-L-glutamine dipeptide (#35050-061, Gibco), 100U/mL penicillin, 100 μg/mL streptomycin (#SV30010, HyClone) and 10% fetal bovine serum (#SH30071.03 HyClone). Cells were maintained in a humidified incubator at 37° C. in 5% CO2.
IDO activity was assessed as a function of kynurenine production as follows: HeLa cells were seeded in a 96-well culture plate at a density of 5,000 cells/well and allowed to equilibrate overnight. After 24 hours, the media was aspirated and replaced with media containing IFNγ (#285-IF/CF, R&D Systems) at a final concentration of 25 ng/mL. A serial dilution of each test compound was added to the cells in a total volume of 200 μL of culture medium. […] Kynurenine concentrations were determined by measuring absorbance at 480 nm and calibrating against an L-kynurenine (#K8625, Sigma-Aldrich) standard curve using a SPECTRAMAX® M2e microplate reader (Molecular Devices). The percentage activity at each inhibitor concentration was determined and IC50 values assessed using nonlinear regression.

[3] = Thermodynamic equilibrium aqueous solubility; type: physicochemical; settings: thermodynamic from solid, 18-24 hours at room temperature, read-out: Solubility (μg/mL) pH 1.0, 4.0, 6.5, 7.4 buffers
Procedure: Thermodynamic Equilibrium Aqueous Solubility Evaluation
The calibration standard is prepared by accurately weighing 0.3-0.7 mg of sample into 5 ml volumetric flask and then dissolved in pure methanol. If the standard material is not fully soluble in methanol, other solvents such as DMSO or mixed solvent systems can used.
The calibration standard is typically prepared fresh, before the start of the assay. Note the calibration standard must be fully dissolved. A single point calibration curve is used to determine the concentration of the final saturated solution.
The saturated solution is prepared by adding 1.0 ml of the appropriate aqueous solvent to the remaining portion/portions of material (˜1 mg/l ml) into the 1 dram submission vial. The solution is sonicated and vortexed for ˜30 seconds. The sample solution is placed on an orbiter that continually agitates the sample solutions for 18-24 hours at room temperature. The saturated solution is then transferred to a 1.5 ml eppendorf tube and centrifuged for ˜2 min. at 10000 rpms. The supernatant from the saturated solution is filtered, using a 0.45 μm PTFE syringe filter, into a 1.5 mL glass HPLC.
The standards and sample are analyzed by HPLC using either UV/Vis diode array or variable wavelength detection. Typical quantitation wavelengths are 210 or 254 nm; detection wavelength can be individually customized to optimize sensitivity. In addition to UV detection, mass spectrometry detection is recommended in order to confirm the Mass of the peak of interest.
Dilutions of saturated aqueous test solutions are performed if HPLC-UV peak is beyond the linear portion of the standard calibration curve. Typical dilutions include 100 μl/900 μl (×10) or 500 μl/500 μl (2×), as required.
HPLC grade solvents are employed.

[4] = aqueous buffer pH 1.0, simulated gastric fluid, pH 1.0 buffer
[5] = aqueous buffer pH 7.4, aqueous buffer, pH 7.4 buffer
[6] = aqueous buffer pH 4.0, aqueous buffer, pH 4.0 buffer
[7] = aqueous buffer pH 6.5, aqueous buffer, pH 6.5 buffer

SMILES | IC50 [1] | IC50 [2] | solubility [3, 4] | solubility [3, 5] | solubility [3, 6] | solubility [3, 7]
CC[C@@H](CC(=O)O)c1ccc(N(CC(C)C)CC(C)C)c(NC(=O)Nc2ccc(C)cc2)c1 [Example 1E, (S)-3-(4-(diisobutylamino)-3-(3-(p-tolyl)ureido)phenyl)pentanoic Acid] | 3.1 nM | 4.1 nM | 630 µg/mL (≈ 1390 µM) | 1 µg/mL (≈ 2.2 µM) | – | –
CCOP(=O)(O)OCOC(=O)C[C@H](CC)c1ccc(N(CC(C)C)CC(C)C)c(NC(=O)Nc2ccc(C)cc2)c1 [Example 9, (3S)-((Ethoxy(hydroxy)phosphoryl)oxy)methyl 3-(4-(diisobutylamino)-3-(3-(p-tolyl)ureido)phenyl)pentanoate] | – | – | 215 µg/mL (≈ 363 µM) | > 2000 µg/mL | > 1100 µg/mL | > 2000 µg/mL
CC[C@@H](CC(=O)OC(C)OC(=O)N(C)c1ncccc1COP(=O)(O)O)c1ccc(N(CC(C)C)CC(C)C)c(NC(=O)Nc2ccc(C)cc2)c1 (stereo partly drawn) [Example 20, (3S)-1-((Methyl(3-((phosphonooxy)methyl)pyridin-2-yl)carbamoyl)oxy)ethyl 3-(4-(diisobutylamino)-3-(3-(p-tolyl)ureido)phenyl)pentanoate] | – | – | 35 µg/mL (≈ 47.2 µM) | > 500 µg/mL | > 500 µg/mL | > 500 µg/mL

The next lines start with results.

IC50 [1] | IC50 [2] | solubility [3, 4] | solubility [3, 5] | SMILES | solubility [3, 6] | solubility [3, 7]
– | – | 24 µg/mL (≈ 36.9 µM) | 158 µg/mL (≈ 243 µM) | CC[C@@H](CC(=O)OCOC(=O)CCCOP(=O)(O)O)c1ccc(N(CC(C)C)CC(C)C)c(NC(=O)Nc2ccc(C)cc2)c1 [Example 4, (S)-((4-(Phosphonooxy)butanoyl)oxy)methyl 3-(4-(diisobutylamino)-3-(3-(p-tolyl)ureido) Phenyl) Pentanoate] | > 500 µg/mL | > 500 µg/mL
– | – | 15 µg/mL (≈ 22.5 µM) | 16 µg/mL (≈ 24 µM) | CC[C@@H](CC(=O)OCOC(=O)OCC(C)OP(=O)(O)O)c1ccc(N(CC(C)C)CC(C)C)c(NC(=O)Nc2ccc(C)cc2)c1 (stereo partly drawn) [Example 22, (3S)-(((2-(Phosphonooxy)propoxy)carbonyl)oxy)methyl 3-(4-(diisobutylamino)-3-(3-(p-tolyl)ureido)phenyl)pentanoate] | > 500 µg/mL | 22 µg/mL (≈ 33 µM)
